This note sets out measurements from BindingDB's records for doi:10.7270/Q2JD4V7Q (The Scripps Research Institute Molecular Screening Center, 2010).

Bounds are passed on as bounds.

The target in the assay is T1, NADPH oxidase 1 (Homo sapiens, UniProt Q9Y5S8).
T1 sequence (Q9Y5S8 whole entry): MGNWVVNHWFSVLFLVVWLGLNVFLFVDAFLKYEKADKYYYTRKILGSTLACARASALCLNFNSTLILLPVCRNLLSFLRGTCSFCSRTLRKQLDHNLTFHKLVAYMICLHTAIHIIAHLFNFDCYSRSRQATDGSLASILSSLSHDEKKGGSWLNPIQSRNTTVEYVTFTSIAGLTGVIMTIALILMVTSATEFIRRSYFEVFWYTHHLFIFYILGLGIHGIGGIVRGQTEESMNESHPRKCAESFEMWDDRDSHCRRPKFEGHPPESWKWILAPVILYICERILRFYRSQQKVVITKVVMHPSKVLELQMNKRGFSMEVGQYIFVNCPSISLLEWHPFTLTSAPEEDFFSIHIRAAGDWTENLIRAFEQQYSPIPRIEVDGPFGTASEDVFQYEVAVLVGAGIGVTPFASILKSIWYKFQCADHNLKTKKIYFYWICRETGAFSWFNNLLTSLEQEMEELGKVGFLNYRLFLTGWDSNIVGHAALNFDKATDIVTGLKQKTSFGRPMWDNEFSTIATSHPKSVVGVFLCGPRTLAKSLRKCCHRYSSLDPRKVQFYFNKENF
Nature of the assay: xanthine oxidase inhibitors, late-stage follow-up, NOX1 inhibitor project, biochemical, IC50, set 2 (AID 435009).

For the molecule `Oc1c(Br)cc(CN=Nc2c(Cl)cncc2Cl)cc1Br` [4-[[2-[3,5-bis(chloranyl)pyridin-4-yl]hydrazinyl]methylidene]-2,6-bis(bromanyl)cyclohexa-2,5-dien-1-one], the IC50 – broadly, the concentration at which inhibition is half-maximal – is above 50 µM.
The figure for `CN(C)c1ccc(CN=Nc2c(Cl)cncc2Cl)cc1` is above 50 µM.
